Source: patent US9101638B2, “Boronic acid derivatives and therapeutic uses thereof” (Rempex Pharmaceuticals, Inc., priority 2013, dated 2015)

Legend:
KP1009 (CTX-M-15) = experiment: Potentiation of aztreonam, strain KP1009; assay type: cell-based
ec302 (TEM-10) [1] = experiment: Potentiation of aztreonam, strain ec302; assay type: cell-based
EC1010 (CMY-6) [2] = experiment: Potentiation of aztreonam, strain EC1010; assay type: cell-based
ec302 (TEM-10) [3] = experiment: Potentiation of tigemonam, strain ec302; assay type: cell-based
EC1010 (CMY-6) [4] = assay type: cell-based
OXA-48 = OXA-48 (Klebsiella pneumoniae, UniProt Q6XEC0); experiment: Inhibition of nitrocefin cleavage by purified OXA-48; assay type: biochemical; details: nitrocefin reporter substrate, purified enzyme; read-out: Ki (OXA-48, NCF)
How it was run: (§1)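 10 min RT preincubation, enzyme with inhibitor series in reaction buffer. Substrate nitrocefin; kinetic read 490 nm, 10 sec intervals, 10 min total.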

Thrombin = target: T1, Thrombin (Homo sapiens, UniProt P00734); experiment: Serine protease inhibition: thrombin; assay type: biochemical, mammalian; details: Table 8A, class symbols; read-out: IC50 Thrombin
T1 construct: Thrombin; MPBio; 19491880; purchased MPBio 19491880
Description: (§2) The effect of selected BLIs on the enzymatic activity of some common mammalian serine proteases was evaluated.
(§3) 50 μl of the diluted enzyme was mixed with 50 μl of inhibitor at various concentrations and 50 μl of corresponding buffer (Table 7). Reaction mixtures were incubated for 10 min at 37° C. Subsequently, 50 μl of corresponding substrate (Table 7) was added and absorbance or fluorescence was monitored for 30 min on SpectraMax M2 plate reader (Molecular Devices). 4-(2-Aminoethyl)benzenesulfonyl fluoride hydrochloride (AEBSF) and leupeptin were used as positive controls. Rates of reaction were calculated and presented relative to “no treatment” control.

Neutrophil elastase = target: T2, Neutrophil elastase (Homo sapiens, UniProt P08246); experiment: Serine protease inhibition: neutrophil elastase; assay type: biochemical, mammalian; details: Table 8B; read-out: IC50 Neutrophil elastase
T2 construct: purchased Calbiochem 324681
T2 sequence (P08246 30-267): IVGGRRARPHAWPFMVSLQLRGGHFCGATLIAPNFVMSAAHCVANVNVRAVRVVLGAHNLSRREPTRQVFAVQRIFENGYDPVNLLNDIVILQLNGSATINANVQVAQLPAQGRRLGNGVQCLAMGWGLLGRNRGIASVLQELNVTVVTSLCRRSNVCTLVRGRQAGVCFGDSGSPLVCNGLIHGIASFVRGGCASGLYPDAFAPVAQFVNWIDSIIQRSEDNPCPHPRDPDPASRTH
Description: as §2, §3

CathepsinA = target: T3, CathepsinA (Homo sapiens, UniProt P10619); experiment: Serine protease inhibition: cathepsin A; assay type: biochemical, mammalian; details: Table 8B; read-out: IC50 CathepsinA
T3 construct: purchased R&D Systems 1049-SE
T3 sequence (P10619 29-480): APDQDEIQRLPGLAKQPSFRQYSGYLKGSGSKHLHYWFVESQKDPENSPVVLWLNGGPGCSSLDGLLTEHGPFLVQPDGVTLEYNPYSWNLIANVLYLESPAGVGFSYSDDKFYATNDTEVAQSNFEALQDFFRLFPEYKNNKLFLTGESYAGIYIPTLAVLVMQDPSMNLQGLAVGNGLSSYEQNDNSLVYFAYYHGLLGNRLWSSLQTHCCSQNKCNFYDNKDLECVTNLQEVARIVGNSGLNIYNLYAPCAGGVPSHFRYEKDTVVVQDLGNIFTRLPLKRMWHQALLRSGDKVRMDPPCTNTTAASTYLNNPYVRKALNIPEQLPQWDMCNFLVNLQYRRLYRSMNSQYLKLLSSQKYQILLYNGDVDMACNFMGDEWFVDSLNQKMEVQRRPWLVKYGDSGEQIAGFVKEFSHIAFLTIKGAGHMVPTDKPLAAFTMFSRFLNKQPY
How it was run: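 Inhibitors at several concentrations are preincubated with each protease for 10 min at 37° C before substrate is added, and reaction rates over 30 min are compared with an untreated control.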

HtrA2 = target: T4, HtrA2 (Homo sapiens, UniProt O43464); experiment: Serine protease inhibition: HtrA2; assay type: biochemical, mammalian; details: Table 8B; read-out: IC50 HtrA2
T4 sequence (O43464 134-458): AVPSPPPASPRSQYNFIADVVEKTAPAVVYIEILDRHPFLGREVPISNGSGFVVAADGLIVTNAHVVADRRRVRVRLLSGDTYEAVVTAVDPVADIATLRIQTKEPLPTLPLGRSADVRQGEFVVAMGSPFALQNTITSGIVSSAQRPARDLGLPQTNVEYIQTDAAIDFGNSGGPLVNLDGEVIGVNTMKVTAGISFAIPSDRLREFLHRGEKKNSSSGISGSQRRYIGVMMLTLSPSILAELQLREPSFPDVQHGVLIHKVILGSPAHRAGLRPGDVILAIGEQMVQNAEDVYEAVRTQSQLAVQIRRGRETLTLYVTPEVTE
Description: as §2, §3

P99 = P99 (Enterobacter cloacae, UniProt P05364); experiment: Inhibition of nitrocefin cleavage by purified P99; assay type: biochemical; details: nitrocefin reporter substrate, purified enzyme; read-out: Ki (P99, NCF)
Description: (§4) Purified enzymes were mixed with various concentrations of inhibitors in reaction buffer and incubated for 10 min at room temperature. Nitrocefin was added and substrate cleavage profiles were recorded at 490 nm every 10 sec for 10 min.

CMY-2 = CMY-2 (Klebsiella pneumoniae, UniProt Q48434); experiment: Inhibition of nitrocefin cleavage by purified CMY-2; assay type: biochemical; details: nitrocefin reporter substrate, purified enzyme; read-out: Ki (CMY-2, NCF)
Description: as §4

CTX-M-14 = CTX-M-14 (Escherichia coli, UniProt Q9L5C7); experiment: Inhibition of nitrocefin cleavage by purified CTX-M-14; assay type: biochemical; details: nitrocefin reporter substrate, purified enzyme; read-out: Ki (CTX-M-14, NCF)
How it was run: as §1

Sequence of CMY-2 (Q48434 21-381, species assumed): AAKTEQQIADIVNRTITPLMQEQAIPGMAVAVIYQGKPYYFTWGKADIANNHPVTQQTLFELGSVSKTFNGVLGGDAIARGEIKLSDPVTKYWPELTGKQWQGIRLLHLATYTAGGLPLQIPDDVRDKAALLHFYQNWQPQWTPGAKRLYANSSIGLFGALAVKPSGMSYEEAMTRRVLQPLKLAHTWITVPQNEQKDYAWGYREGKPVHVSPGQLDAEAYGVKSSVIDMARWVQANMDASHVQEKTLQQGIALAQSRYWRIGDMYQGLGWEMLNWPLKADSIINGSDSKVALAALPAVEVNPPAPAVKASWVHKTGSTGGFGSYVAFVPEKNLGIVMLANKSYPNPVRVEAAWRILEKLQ
Sequence of OXA-48 (Q6XEC0 23-265 limits assumed): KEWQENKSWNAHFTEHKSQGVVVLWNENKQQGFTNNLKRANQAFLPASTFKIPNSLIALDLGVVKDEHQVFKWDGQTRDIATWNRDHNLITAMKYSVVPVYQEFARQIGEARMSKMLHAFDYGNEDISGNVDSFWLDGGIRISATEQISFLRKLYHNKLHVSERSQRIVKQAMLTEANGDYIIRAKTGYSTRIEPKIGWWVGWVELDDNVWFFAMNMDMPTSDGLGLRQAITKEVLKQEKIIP
Sequence of CTX-M-14 (Q9L5C7 entry or part of it): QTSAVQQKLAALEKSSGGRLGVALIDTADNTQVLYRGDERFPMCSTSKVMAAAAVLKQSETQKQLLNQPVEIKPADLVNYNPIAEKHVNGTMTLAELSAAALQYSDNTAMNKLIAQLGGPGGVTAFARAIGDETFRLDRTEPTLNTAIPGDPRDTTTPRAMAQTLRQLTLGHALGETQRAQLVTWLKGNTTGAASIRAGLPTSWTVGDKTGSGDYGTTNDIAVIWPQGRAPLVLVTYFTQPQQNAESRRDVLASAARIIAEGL
Sequence of P99 (P05364 21-381): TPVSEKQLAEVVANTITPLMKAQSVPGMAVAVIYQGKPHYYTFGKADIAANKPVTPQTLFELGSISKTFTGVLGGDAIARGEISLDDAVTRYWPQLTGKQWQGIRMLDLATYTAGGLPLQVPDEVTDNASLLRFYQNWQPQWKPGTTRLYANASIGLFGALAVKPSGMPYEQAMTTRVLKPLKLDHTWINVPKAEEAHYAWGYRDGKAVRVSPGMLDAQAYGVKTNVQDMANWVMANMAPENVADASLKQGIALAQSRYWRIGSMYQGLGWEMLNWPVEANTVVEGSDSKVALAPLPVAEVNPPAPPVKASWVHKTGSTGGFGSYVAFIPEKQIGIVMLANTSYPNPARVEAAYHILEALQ

| Compound | AZT MPC4 CTX-M-15 KP1009 (KP1009 (CTX-M-15)) | AZT MPC4 TEM-10 ec302 (ec302 (TEM-10) [1]) | AZT MPC4 CMY-6 EC1010 (EC1010 (CMY-6) [2]) | TIG MPC4 TEM-10 ec302 (ec302 (TEM-10) [3]) | TIG MPC4 CMY-6 EC1010 (EC1010 (CMY-6) [4]) | Ki (OXA-48) | IC50 (Thrombin) | IC50 (Neutrophil elastase) | IC50 (CathepsinA) | IC50 (HtrA2) | Ki (P99) | Ki (CMY-2) | Ki (CTX-M-14) |
| --- | --- | --- | --- | --- | --- | --- | --- | --- | --- | --- | --- | --- | --- |
| [N-]=[N+]=NCC(=O)N[C@H]1Cc2cccc(C(=O)O)c2OB1O [Compound 8, (R)-3-(2-azidoacetamido)-2-hydroxy-3,4-dihydro-2H-benzo[e][1,2]oxaborinine-8-carboxylic acid] | X (key: X = MIC of less than 1 μg/mL; Y = MIC of 1 μg/mL to 10 μg/mL; Z = MIC of greater than 10 μg/mL) | Y (key: X = MIC of less than 1 μg/mL; Y = MIC of 1 μg/mL to 10 μg/mL; Z = MIC of greater than 10 μg/mL) | X (key: X = MIC of less than 1 μg/mL; Y = MIC of 1 μg/mL to 10 μg/mL; Z = MIC of greater than 10 μg/mL) | Y (key: X = MIC of less than 1 μg/mL; Y = MIC of 1 μg/mL to 10 μg/mL; Z = MIC of greater than 10 μg/mL) | X (key: X = MIC of less than 1 μg/mL; Y = MIC of 1 μg/mL to 10 μg/mL; Z = MIC of greater than 10 μg/mL) | < 0.001 µM | > 800 µM | > 500 µM | 15 to 500 µM | > 500 µM | – | – | – |
| CSC(=O)N[C@H]1Cc2cccc(C(=O)O)c2OB1O [Compound 11, (R)-2-hydroxy-3-(methylthiocarbonylamino)-3,4-dihydro-2H-benzo[e][1,2]oxaborinine-8-carboxylic acid] | Y (key: X = MIC of less than 1 μg/mL; Y = MIC of 1 μg/mL to 10 μg/mL; Z = MIC of greater than 10 μg/mL) | Y (key: X = MIC of less than 1 μg/mL; Y = MIC of 1 μg/mL to 10 μg/mL; Z = MIC of greater than 10 μg/mL) | Y (key: X = MIC of less than 1 μg/mL; Y = MIC of 1 μg/mL to 10 μg/mL; Z = MIC of greater than 10 μg/mL) | Z (key: X = MIC of less than 1 μg/mL; Y = MIC of 1 μg/mL to 10 μg/mL; Z = MIC of greater than 10 μg/mL) | X (key: X = MIC of less than 1 μg/mL; Y = MIC of 1 μg/mL to 10 μg/mL; Z = MIC of greater than 10 μg/mL) | < 0.001 µM | > 800 µM | > 500 µM | 15 to 500 µM | – | < 0.001 µM | < 0.001 µM | – |
| O=C(CSC(F)F)N[C@H]1Cc2cccc(C(=O)O)c2OB1O [Compound 3, (R)-3-(2-(difluoromethylthio)acetamido)-2-hydroxy-3,4-dihydro-2H-benzo[e][1,2]oxaborinine-8-carboxylic acid] | Y (key: X = MIC of less than 1 μg/mL; Y = MIC of 1 μg/mL to 10 μg/mL; Z = MIC of greater than 10 μg/mL) | Y (key: X = MIC of less than 1 μg/mL; Y = MIC of 1 μg/mL to 10 μg/mL; Z = MIC of greater than 10 μg/mL) | – | – | X (key: X = MIC of less than 1 μg/mL; Y = MIC of 1 μg/mL to 10 μg/mL; Z = MIC of greater than 10 μg/mL) | < 0.001 µM | > 800 µM | 15 to 500 µM | < 15 µM | > 500 µM | < 0.001 µM | – | – |
| Nc1nnc(SCC(=O)N[C@H]2Cc3cccc(C(=O)O)c3OB2O)s1 [Compound 5, (R)-3-(2-(5-amino-1,3,4-thiadiazol-2-ylthio)acetamido)-2-hydroxy-3,4-dihydro-2H-benzo[e][1,2]oxaborinine-8-carboxylic acid] | X (key: X = MIC of less than 1 μg/mL; Y = MIC of 1 μg/mL to 10 μg/mL; Z = MIC of greater than 10 μg/mL) | Y (key: X = MIC of less than 1 μg/mL; Y = MIC of 1 μg/mL to 10 μg/mL; Z = MIC of greater than 10 μg/mL) | X (key: X = MIC of less than 1 μg/mL; Y = MIC of 1 μg/mL to 10 μg/mL; Z = MIC of greater than 10 μg/mL) | Y (key: X = MIC of less than 1 μg/mL; Y = MIC of 1 μg/mL to 10 μg/mL; Z = MIC of greater than 10 μg/mL) | X (key: X = MIC of less than 1 μg/mL; Y = MIC of 1 μg/mL to 10 μg/mL; Z = MIC of greater than 10 μg/mL) | – | > 800 µM | > 500 µM | 15 to 500 µM | > 500 µM | – | – | 0.001 to 0.01 µM |
| O=C(Cc1cccs1)N[C@H]1Cc2cccc(C(=O)O)c2OB1O [CPD A, reference compound] | – | Y (key: X = MIC of less than 1 μg/mL; Y = MIC of 1 μg/mL to 10 μg/mL; Z = MIC of greater than 10 μg/mL) | – | – | X (key: X = MIC of less than 1 μg/mL; Y = MIC of 1 μg/mL to 10 μg/mL; Z = MIC of greater than 10 μg/mL) | < 0.001 µM | < 300 µM | 15 to 500 µM | < 15 µM | > 500 µM | – | < 0.001 µM | < 0.001 µM |
| O=C(CSc1nncs1)N[C@H]1Cc2cccc(C(=O)O)c2OB1O [Compound 7, (R)-3-(2-(1,3,4-thiadiazol-2-ylthio)acetamido)-2-hydroxy-3,4-dihydro-2H-benzo[e][1,2]oxaborinine-8-carboxylic acid] | X (key: X = MIC of less than 1 μg/mL; Y = MIC of 1 μg/mL to 10 μg/mL; Z = MIC of greater than 10 μg/mL) | Y (key: X = MIC of less than 1 μg/mL; Y = MIC of 1 μg/mL to 10 μg/mL; Z = MIC of greater than 10 μg/mL) | X (key: X = MIC of less than 1 μg/mL; Y = MIC of 1 μg/mL to 10 μg/mL; Z = MIC of greater than 10 μg/mL) | Y (key: X = MIC of less than 1 μg/mL; Y = MIC of 1 μg/mL to 10 μg/mL; Z = MIC of greater than 10 μg/mL) | X (key: X = MIC of less than 1 μg/mL; Y = MIC of 1 μg/mL to 10 μg/mL; Z = MIC of greater than 10 μg/mL) | – | > 800 µM | > 500 µM | 15 to 500 µM | – | < 0.001 µM | < 0.001 µM | < 0.001 µM |
| O=CN[C@H]1Cc2cccc(C(=O)O)c2OB1O [Compound 4, (R)-3-formamido-2-hydroxy-3,4-dihydro-2H-benzo[e][1,2]oxaborinine-8-carboxylic acid] | – | Y (key: X = MIC of less than 1 μg/mL; Y = MIC of 1 μg/mL to 10 μg/mL; Z = MIC of greater than 10 μg/mL) | X (key: X = MIC of less than 1 μg/mL; Y = MIC of 1 μg/mL to 10 μg/mL; Z = MIC of greater than 10 μg/mL) | – | X (key: X = MIC of less than 1 μg/mL; Y = MIC of 1 μg/mL to 10 μg/mL; Z = MIC of greater than 10 μg/mL) | 0.001 to 0.01 µM | > 800 µM | > 500 µM | > 500 µM | > 500 µM | 0.001 to 0.01 µM | 0.001 to 0.01 µM | 0.001 to 0.01 µM |
